Experimental data as given in patent US20230146870A1, “METHOD TO QUANTIFY AFFINITY AND SELECTIVITY OF SMALL MOLECULES FOR PROTEINS IN LIVING CELLS” (Ohio State Innovation Foundation, priority 2021, published 2023).

Key:
PKCβI = PKCβI (Homo sapiens, UniProt P05771); conditions: radiolabeled PDBu at 4° C.; read-out: Biochemical Ki, PKCβI; cited from earlier work
[1] = molecular target: T1, native (untagged) murine PKCθ (Mus musculus, UniProt Q02111); test: FPCBA competition with probe 1, native PKCθ in HEK293 cells; format: binding; parameters: expressed in transfected cells; host or cells: HEK293 (ATCC CRL-1573), transient transfection with pIRES-mVenus carrying the PKC gene; conditions: read-out: Cellular Ki for native PKCθ (95% confidence interval); probe 1 400 nM, BIM1 2 μM, 2 h at 37° C.
T1 sequence (Q02111 whole entry): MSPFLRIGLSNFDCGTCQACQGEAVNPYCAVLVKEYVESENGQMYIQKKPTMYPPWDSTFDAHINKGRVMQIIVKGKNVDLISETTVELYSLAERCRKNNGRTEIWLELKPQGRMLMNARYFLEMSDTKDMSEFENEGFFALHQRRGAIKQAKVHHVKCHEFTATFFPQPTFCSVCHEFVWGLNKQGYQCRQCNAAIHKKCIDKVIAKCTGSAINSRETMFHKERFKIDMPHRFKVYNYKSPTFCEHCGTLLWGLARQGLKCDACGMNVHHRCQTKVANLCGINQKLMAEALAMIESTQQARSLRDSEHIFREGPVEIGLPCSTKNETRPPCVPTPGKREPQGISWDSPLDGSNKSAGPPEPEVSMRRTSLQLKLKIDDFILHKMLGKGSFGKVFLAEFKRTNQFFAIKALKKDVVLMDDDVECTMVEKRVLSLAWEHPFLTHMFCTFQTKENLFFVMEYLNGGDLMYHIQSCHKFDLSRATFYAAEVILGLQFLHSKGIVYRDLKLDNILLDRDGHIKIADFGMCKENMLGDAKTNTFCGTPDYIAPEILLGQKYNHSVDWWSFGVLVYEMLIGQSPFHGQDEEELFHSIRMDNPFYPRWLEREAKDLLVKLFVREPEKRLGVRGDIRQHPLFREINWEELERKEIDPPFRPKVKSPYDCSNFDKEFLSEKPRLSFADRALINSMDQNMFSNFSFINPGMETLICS

[2] = molecular target: T2, native (untagged) murine PKCβI (Mus musculus, UniProt P68404); test: FPCBA competition with probe 1, native PKCβI in HEK293 cells; format: binding; conditions: read-out: Cellular Ki for native PKCβI (95% confidence interval); probe 1 400 nM, BIM1 2 μM, 2 h at 37° C.
T2 construct: For coexpression of full-length unmodified PKC proteins with mVenus as an independent marker; expressed in transfected cells; host or cells: HEK293 (transient, pIRES-mVenus)
T2 sequence (P68404 2-673 isoform P68404-2): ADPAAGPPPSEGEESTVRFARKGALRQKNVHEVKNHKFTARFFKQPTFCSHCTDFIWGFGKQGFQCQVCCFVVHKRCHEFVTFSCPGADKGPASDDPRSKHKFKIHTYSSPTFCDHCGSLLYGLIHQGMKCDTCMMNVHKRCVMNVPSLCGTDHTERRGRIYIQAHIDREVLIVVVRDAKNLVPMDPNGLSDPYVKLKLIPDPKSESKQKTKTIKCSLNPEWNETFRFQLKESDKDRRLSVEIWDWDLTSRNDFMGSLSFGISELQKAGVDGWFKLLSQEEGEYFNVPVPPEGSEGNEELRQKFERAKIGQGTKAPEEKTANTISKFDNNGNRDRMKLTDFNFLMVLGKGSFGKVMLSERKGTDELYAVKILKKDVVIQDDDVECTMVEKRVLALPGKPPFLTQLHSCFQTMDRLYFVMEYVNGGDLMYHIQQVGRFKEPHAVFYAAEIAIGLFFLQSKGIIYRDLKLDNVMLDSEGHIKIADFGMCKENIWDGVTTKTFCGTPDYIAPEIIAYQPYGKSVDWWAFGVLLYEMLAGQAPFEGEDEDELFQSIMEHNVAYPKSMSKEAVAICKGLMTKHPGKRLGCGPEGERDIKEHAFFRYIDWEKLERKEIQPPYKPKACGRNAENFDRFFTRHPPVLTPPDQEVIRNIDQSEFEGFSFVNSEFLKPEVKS

[3] = molecular target: T3, native (untagged) murine PKCη (Mus musculus, UniProt P23298); test: FPCBA competition with probe 1, native PKCη in HEK293 cells; format: binding; parameters: expressed in transfected cells; host or cells: HEK293 (ATCC CRL-1573), transient transfection with pIRES-mVenus carrying the PKC gene; conditions: read-out: Cellular Ki for native PKCη (95% confidence interval); probe 1 400 nM, BIM1 2 μM, 2 h at 37° C.
T3 sequence (P23298 whole entry): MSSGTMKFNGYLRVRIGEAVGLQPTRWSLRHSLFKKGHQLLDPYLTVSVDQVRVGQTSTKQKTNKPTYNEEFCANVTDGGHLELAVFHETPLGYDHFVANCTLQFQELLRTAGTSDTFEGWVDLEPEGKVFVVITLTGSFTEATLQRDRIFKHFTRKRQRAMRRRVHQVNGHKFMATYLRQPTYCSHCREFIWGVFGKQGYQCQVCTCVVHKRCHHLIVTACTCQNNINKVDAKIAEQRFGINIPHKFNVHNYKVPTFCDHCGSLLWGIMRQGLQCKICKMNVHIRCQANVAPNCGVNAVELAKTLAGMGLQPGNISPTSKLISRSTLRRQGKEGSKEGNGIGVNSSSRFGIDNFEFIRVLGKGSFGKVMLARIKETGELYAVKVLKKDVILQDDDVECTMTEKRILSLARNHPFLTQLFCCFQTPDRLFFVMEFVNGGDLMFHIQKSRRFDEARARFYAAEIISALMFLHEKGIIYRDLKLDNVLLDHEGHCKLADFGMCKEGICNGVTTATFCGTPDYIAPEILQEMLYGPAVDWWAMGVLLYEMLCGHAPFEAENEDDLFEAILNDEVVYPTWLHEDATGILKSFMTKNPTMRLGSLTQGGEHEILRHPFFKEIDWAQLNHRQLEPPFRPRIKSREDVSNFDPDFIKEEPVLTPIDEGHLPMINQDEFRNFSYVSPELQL

Jurkat cells = test: Cellular viability assay, Jurkat lymphocytes, 48 h, flow cytometry (Example 2); format: cell-based
Procedure: The impact of membrane transporters on the toxicity profile of 49 was also studied.
Jurkat lymphocytes were seeded into a 96-well plate in fresh complete medium at 2.5×10^5 cells/mL and 200 μL per well. All compounds were serial diluted in DMSO and added to complete media to achieve a 1:1000 dilution factor (0.10% DMSO in each well). […] The total cell-count for each well was determined by flow cytometry and staining with propidium iodide was used to identify populations of live cells (only dead cells are stained by PI). Counts of viable cells for each treatment, determined in triplicate, were used to generate dose-response curves. These curves were fitted with non-linear regression using an inhibitor vs. response variable slope […] model (GraphPad Prism 9) to determine IC50 values.

PKCβI-mVenus = molecular target: T4, PKCβI-mVenus (Mus musculus, UniProt P68404); test: Confocal microscopy of translocation of PKCβI-mVenus in HEK293 cells; format: cell-based; conditions: 2 μM, 2 h
T4 construct: we generated expression vectors for eight full-length mouse isozymes; expressed in transfected cells; host or cells: HEK293 (ATCC CRL-1573), transient transfection with CMV-PKC betaI-mVenus-N1
T4 sequence (P68404 whole entry): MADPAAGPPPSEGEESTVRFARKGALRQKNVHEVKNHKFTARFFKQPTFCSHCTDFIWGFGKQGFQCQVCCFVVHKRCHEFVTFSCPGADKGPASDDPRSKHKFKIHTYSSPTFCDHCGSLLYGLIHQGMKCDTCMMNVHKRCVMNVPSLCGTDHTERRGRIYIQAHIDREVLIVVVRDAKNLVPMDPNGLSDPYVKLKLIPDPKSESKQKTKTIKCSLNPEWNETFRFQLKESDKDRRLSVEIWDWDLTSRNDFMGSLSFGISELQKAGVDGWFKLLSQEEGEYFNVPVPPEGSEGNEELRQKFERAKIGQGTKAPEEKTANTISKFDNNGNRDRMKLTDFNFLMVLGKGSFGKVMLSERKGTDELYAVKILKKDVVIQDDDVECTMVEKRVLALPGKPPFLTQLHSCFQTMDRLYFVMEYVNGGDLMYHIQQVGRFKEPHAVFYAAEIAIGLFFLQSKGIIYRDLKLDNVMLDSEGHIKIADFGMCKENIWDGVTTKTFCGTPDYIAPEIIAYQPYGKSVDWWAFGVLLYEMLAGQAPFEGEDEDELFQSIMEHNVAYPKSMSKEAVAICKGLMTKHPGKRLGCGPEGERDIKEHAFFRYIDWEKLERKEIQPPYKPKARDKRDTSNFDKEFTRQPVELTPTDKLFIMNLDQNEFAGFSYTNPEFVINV
Procedure: FIGS. 36A-36D provide confocal and DIC micrographs of living HEK293 cells transiently transfected to express PKCβI-mVenus. […] Scale bars=10 microns.
This IRES vector was derived from a previously reported^52 variant encoding the somewhat less fluorescent protein Venus.
Living cells cultured on an 8-well chamber glass slide (Ibidi μ-Slide, 300 μL, 100,000 cells/well) were imaged with an inverted Leica TCS SP8 confocal laser-scanning microscope (63× oil-immersion objective). Fluorescent probes were excited at 405 nm and mVenus was excited at 488 nm. Emitted photons were collected from 425-500 nm and 500-650 nm. For imaging, transiently transfected HEK293 cells in complete medium (10% FBS) were plated on the Ibidi μ-Slide for 16 h to promote adherence. Concentrated stock solutions of fluorescent probes in DMSO were serially diluted 500-fold in serum-free DMEM medium to afford 2× stock solutions (0.2% DMSO). Half of the cell culture medium (150 μL) was carefully removed by pipet and gently replaced with the 2× stock solution of the probe in serum-free medium (final [FBS]˜5%). Cells were treated with probes (2 μM) at 37° C. for 2 h before imaging by microscopy. Laser power and PMT gain settings were identical for all images and controls within a given experiment for accurate comparisons of cellular fluorescence.

murine PKCη-mVenus = murine PKCη-mVenus (Mus musculus, UniProt P23298); test: FPCBA saturation binding of probe 1, HEK293 cells expressing PKCη-mVenus (Example 3)
Chain of murine PKCη-mVenus (P23298 whole entry): as the sequence (P23298 whole entry) above

[4] = molecular target: T3, native (untagged) murine PKCη; test: FPCBA saturation binding of probe 1, native PKCη (IRES-mVenus) in HEK293 cells
[5] = molecular target: T1, native (untagged) murine PKCθ; test: FPCBA saturation binding of probe 1, native PKCθ (IRES-mVenus) in HEK293 cells
mouse PKCβI-mVenus = molecular target: T5, mouse PKCβI-mVenus (Mus musculus, UniProt P68404); test: Apparent cellular Kd by flow cytometry, HEK293 cells overexpressing PKCβI-mVenus (Example 2); format: binding
T5 construct: eight plasmids encoding full length mouse PKC isozymes fused to; expressed in transfected cells; host or cells: HEK293
T5 sequence (P68404 whole entry, the tested form may be a part): as the sequence (P68404 whole entry) above
Procedure: The apparent Kd values of these fluorescent probes were measured using different PKC isozymes (e.g., PKCβI, FIGS. 20A-20D). HEK293 cells were transfected to overexpress PKCβ-mVenus and treated with probes in the presence of verapamil (100 μM) as an inhibitor of efflux.

[6] = molecular target: T2, native (untagged) murine PKCβI; test: FPCBA saturation binding of probe 1, native PKCβI (IRES-mVenus) in HEK293 cells
Excerpt: To measure the binding of 1 and 2 to PKCβI in cells, we used flow cytometry to analyze the blue fluorescence of transfected and non-transfected cells as a function of probe concentration at equilibrium (FIGS. 37A-37F). In these assays, we directly compared the PKCβI-mVenus fusion protein with native PKCβI expressed separately from mVenus. […] This low background signal facilitated saturation binding assays, where non-specific binding of probes to non-transfected cells was subtracted from total binding to highly transfected cells (P2 gate) to measure specific binding. […] We further compared cells treated with and without the orthosteric PKC catalytic inhibitor BIM1 to block the kinase activity of PKC and isolate the analysis of interactions of 1 and 2 with the C1 regulatory domains of PKCbI.

murine PKCδ-mVenus = murine PKCδ-mVenus (Mus musculus, UniProt P28867); test: FPCBA saturation binding of probe 1, HEK293 cells expressing PKCδ-mVenus (Example 3)
Chain of murine PKCδ-mVenus (P28867 whole entry): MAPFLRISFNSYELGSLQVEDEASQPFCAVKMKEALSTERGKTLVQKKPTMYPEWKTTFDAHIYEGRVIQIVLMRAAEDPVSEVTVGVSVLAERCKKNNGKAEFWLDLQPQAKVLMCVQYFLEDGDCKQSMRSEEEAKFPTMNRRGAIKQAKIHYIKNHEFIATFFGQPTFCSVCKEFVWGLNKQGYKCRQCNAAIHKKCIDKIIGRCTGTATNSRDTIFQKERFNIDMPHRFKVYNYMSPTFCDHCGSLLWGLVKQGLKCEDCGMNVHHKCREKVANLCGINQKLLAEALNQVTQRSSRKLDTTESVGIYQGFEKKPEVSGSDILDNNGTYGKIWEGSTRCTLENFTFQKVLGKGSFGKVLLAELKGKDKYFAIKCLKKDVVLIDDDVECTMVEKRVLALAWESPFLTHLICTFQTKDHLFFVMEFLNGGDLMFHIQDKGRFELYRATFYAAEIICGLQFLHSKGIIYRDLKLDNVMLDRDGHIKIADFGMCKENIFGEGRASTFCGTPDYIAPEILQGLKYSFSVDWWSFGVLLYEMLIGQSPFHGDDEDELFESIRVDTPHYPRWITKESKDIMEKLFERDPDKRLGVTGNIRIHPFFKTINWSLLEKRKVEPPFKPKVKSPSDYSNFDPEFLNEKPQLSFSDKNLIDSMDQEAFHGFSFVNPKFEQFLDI

Chain of PKCβI (P05771 whole entry): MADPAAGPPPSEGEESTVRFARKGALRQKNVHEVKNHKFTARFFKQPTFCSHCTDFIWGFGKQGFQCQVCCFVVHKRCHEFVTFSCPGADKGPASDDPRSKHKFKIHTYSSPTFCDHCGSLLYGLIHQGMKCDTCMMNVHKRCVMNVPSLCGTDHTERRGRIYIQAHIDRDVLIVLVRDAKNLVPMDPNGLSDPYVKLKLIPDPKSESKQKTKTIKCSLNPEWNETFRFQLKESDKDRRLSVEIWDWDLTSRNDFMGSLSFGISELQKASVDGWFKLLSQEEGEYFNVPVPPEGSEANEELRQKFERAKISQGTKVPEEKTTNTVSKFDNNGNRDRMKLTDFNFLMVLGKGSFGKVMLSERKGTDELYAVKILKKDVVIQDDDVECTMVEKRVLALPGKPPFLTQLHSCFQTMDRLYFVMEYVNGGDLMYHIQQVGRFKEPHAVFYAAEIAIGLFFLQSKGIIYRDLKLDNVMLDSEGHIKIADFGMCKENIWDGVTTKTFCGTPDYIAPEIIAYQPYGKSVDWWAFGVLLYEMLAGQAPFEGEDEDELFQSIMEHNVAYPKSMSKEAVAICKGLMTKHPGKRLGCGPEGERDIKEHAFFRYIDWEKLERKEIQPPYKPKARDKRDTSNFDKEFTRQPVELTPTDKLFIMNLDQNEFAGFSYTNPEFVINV

CCC/C=C/C=C/C(=O)O[C@H]1/C(=C/C(=O)OC)C[C@H]2C[C@H]([C@@H](C)O)OC(=O)C[C@H](O)C[C@@H]3C[C@H](OC(C)=O)C(C)(C)[C@](O)(C[C@@H]4C/C(=C/C(=O)OC)C[C@H](/C=C/C(C)(C)[C@]1(O)O2)O4)O3 [bryostatin 1]
Ki (PKCβI): 2.2 nM | Ki [1]: 8 nM | Ki [2]: 4 nM | Ki [3]: 9 nM

CCCCCCN(CCCCCCCCCCCCNC(=O)c1cc2cc(F)c(O)c(F)c2oc1=O)C(=O)O[C@@]12[C@H](O)[C@@H](C)[C@@]3(O)[C@@H](C=C(CO)C[C@]4(O)C(=O)C(C)=C[C@@H]34)[C@@H]1C2(C)C [probe 1, (1aR,1bS,4aR,7aS,7bS,8R,9R,9aS)-4a,7b,9-trihydroxy-3-(hydroxymethyl)-1,1,6,8-tetramethyl-5-oxo-1,1a,1b,4,4a,5,7a,7b,8,9-decahydro-9aH-cyclopropa[3,4]benzo[1,2-e]azulen-9a-yl (12-(6,8-difluoro-7-hydroxy-2-oxo-2H-chromene-3-carboxamido)dodecyl)(hexyl)carbamate]
activity relative to 33 (Jurkat cells): > 20 fold | IC50 (Jurkat cells; Homo sapiens, Jurkat, read-out: toxicity towards Jurkat cells, IC50): 500 nM | translocation of PKCβI-mVenus (PKCβI-mVenus): translocated to cellular membranes | Kd (murine PKCη-mVenus): 250 ± 36 nM | Kd [4]: 177 nM | Kd [5]: 1050 ± 125 nM | Kd (mouse PKCβI-mVenus): 190 nM | affinity of native untagged PKCβI relative to PKCβI-mVenus fusion [6]: ~2 fold | Kd ([6]; IRES-mVenus, BIM1 2 μM, 2 h at 37° C., 4% FBS, read-out: Cellular Kd for probe, native PKCβI): 97 nM | Kd (murine PKCδ-mVenus): 657 ± 254 nM
